Assay: GSK PKIS2: Screen against O. lienalis microfilariae, single point, at 3.1uM to assess reduction in motility. Compounds were also tested for cytotoxicity against Rhesus Monkey LLCMK2 cells.
Assay type: functional, Onchocerca lienalis, LLC-MK2
Settings: CELL_LINE LLCMK2; CELL_SUPPLIER ECACC; CONC 3.1 uM; ORGANISM_SUPPLIER Extracted from peri-umbilical skin obtained from naturally infected cattle in the UK; temperature 37 degree C

SMILES | MOTILITY REDUCTION/CYTOTOXICITY
CCOC(=O)N1CCC(n2cnc(-c3ccc(F)cc3)c2-c2ccnc(N)n2)CC1 | 0%
Nc1nc(-c2ccc3c(N)n[nH]c3c2)cc(N2CCCC(NC(=O)c3ccccc3)C2)n1 (stereo not given) | 0%
Cc1c(O)cccc1Nc1ccnc2ccc(C(F)(F)F)cc12 | 40%
C[C@@H](Oc1cc(-n2cnc3cc(-c4ccnc(NCCS(C)(=O)=O)c4)ccc32)sc1C(N)=O)c1ccccc1Cl | 53.4%
COc1cc2c(Nc3cccc(NC(=O)c4ccccc4)c3)ncnc2cc1OCCCN1CCOCC1 | 0%
c1ccc(Cn2ccc3cc(Nc4ncnc5ccccc45)ccc32)cc1 | 33.4%
COC(=O)Nc1nc2ccc(Oc3ccc(NC(=O)Nc4cccc(SC)c4)cc3)cc2[nH]1 | 20%
O=S(=O)(c1cccc(F)c1)c1ccc(Nc2ncnc3cc(Br)sc23)cc1Cl | 73.4%
Cn1cncc1-c1cc2c(Nc3ccc(OCc4ccccc4)cc3)ncnc2cn1 | 0%
COc1ccc(Nc2nccc(-c3cccc(NC(=O)c4cc5cc(F)ccc5[nH]4)c3)n2)cc1 | 53.4%
Cc1ccc2c(-c3ccnc(Nc4ccc(C(F)(F)F)cc4)n3)cnn2n1 | 0%
CS(=O)(=O)c1ccc(-c2nc3n(c2-c2ccncc2)CCC3)cc1 | 0%
COc1ccc(NC(=O)c2ccc(-c3cc(-c4nnc(C)o4)ccc3C)cc2)cc1 | 33.4%
C[C@@H](Oc1cc(-n2cnc3cc(-c4ccncc4)ccc32)sc1C(N)=O)c1ccccc1Cl | 0%
O=c1cc(N2CCOCC2)nc2n(Cc3cccc4ccccc34)ccn12 | 0%
COc1ccc(Nc2nccc(N3CCC(NC(=O)c4cc5ccccc5s4)C3)n2)cc1 (stereo not given) | 0%
COc1cc(Nc2nccc(N3CCC(NC(=O)Nc4ccc5c(c4)OCO5)C3)n2)cc(OC)c1OC (stereo not given) | 0%
Cn1cc(-c2ccc3c(c2)CCN3C(=O)Cc2cc(F)cc(F)c2F)c2c(N)ncnc21 | 0%
Oc1cccc(Nc2ccnc3cc(-c4ccncc4)ccc23)c1 | 0%
Cc1ccc(C)c(NC(=O)Nc2ccc(C)c(-c3ccc(C(=O)Nc4ccncc4)cc3)c2)c1 | 33.4%
COc1cc2ncn(-c3cc(OCc4sccc4Cl)c(C(N)=O)s3)c2cc1OC | 13.4%
Cc1ccc(NC(=O)c2ccc(Cl)c(Cl)c2)cc1-c1ccc(C(=O)Nc2ccncc2)cc1 | 26.7%
NCCNS(=O)(=O)c1ccc(-c2ccnc3[nH]ccc23)cc1 | 0%
Nc1nc(-c2nccs2)c(-c2ccnc3ccccc23)s1 | 0%
CNc1nc(-c2ccc3c(N)n[nH]c3c2)cc(N2C[C@@H](C(=O)Nc3ccccc3)CC[C@H]2C)n1 | 0%
Cc1ccccc1Cn1ccn2c(=O)cc(N3CCOCC3)nc12 | 0%
COc1ccc2cc(-c3nc(-c4ccccc4C(C)C)[nH]c3-c3ccncc3)ccc2c1 | 100%

SMILES | MOTILITY REDUCTION/CYTOTOXICITY
COC(=O)Nc1nc2ccc(Oc3ccc(NC(=O)Nc4cc(C(F)(F)F)ccc4F)cn3)cc2[nH]1 | 0%
CC(C)c1nc(-c2cccc(NS(=O)(=O)c3ccccc3)c2)c(-c2ccnc(Nc3ccc4c(c3)CN(C)CC4)n2)s1 | 86.7%
Cn1cc(-c2ccc3c(c2)CCN3C(=O)Cc2cccc(F)c2)c2c(N)ncnc21 | 33.4%
Cc1ccc(-c2nc(Nc3ccncc3)c3ccccc3n2)s1 | 0%
Oc1cc(Nc2ccnc3cc(I)ccc23)ccc1F | 33.4%
CN1C(=O)C(Nc2ccc(Cl)c(C(=O)O)c2)=C(c2ccc(Cl)cc2)C1=O | 0%
Cc1cc(NCC(c2ccccc2)c2ccccc2)nc(NCc2ccc(C(F)(F)F)cc2)n1 | 53.4%
O=C(Nc1n[nH]c2nc(-c3ccco3)c(Br)cc12)c1ccc(CN2CCCC2)cc1 | 0%
COCCNC(=O)c1ccc(-c2cc(C(=O)NC3CC3)cc(F)c2C)cc1 | 0%
COc1ccc(Nc2nccc(NCCNC(=O)c3cc4ccccc4s3)n2)cc1 | 16.7%
COC(=O)Nc1nc2cc(Oc3ccc(NC(=O)Nc4cc(C(F)(F)F)ccc4F)cc3)ccc2[nH]1 | 0%
CNc1nc(-c2ccc3c(N)n[nH]c3c2)cc(N2C[C@@H](C(=O)NC3CCCCC3)OC[C@H]2C)n1 | 0%
COc1ccc(-c2nc3n(c2-c2ccncc2)CCC3)cc1 | 0%
O=C1NC(=O)C(c2ccc(Cl)cc2)=C1Nc1cccc(O)c1 | 13.4%
COC(=O)c1cccc(NC(=O)NCCNc2ccnc(Nc3ccc(F)cc3)n2)c1 | 0%
O=C(Nc1n[nH]c2cc(-c3ccco3)ccc12)C1CC1 | 0%
COc1ccc(Nc2nccc(N3CCC(NC(=O)C(C)c4ccc(Cl)cc4)CC3)n2)cc1 (stereo not given) | 33.4%
O=S(=O)(c1ccc(-c2ccnc3[nH]ccc23)cc1)N1CCCC1 | 0%
CC(C)S(=O)(=O)N1CCN(Cc2ccc3c(c2)nc(NC(=O)c2ccsc2)n3C[C@H](O)c2ccccc2)CC1 | 0%
Nc1ncnc2scc(-c3ccc(NC(=O)Cc4cc(F)ccc4F)cc3)c12.O=C(O)C(F)(F)F | 40%
COc1cc(Nc2nccc(N3CCC(NC(=O)C(C)c4ccc(Cl)cc4)C3)n2)cc(OC)c1OC (stereo not given) | 66.7%
Cc1cccc(Nc2nc(NCCN)ncc2C(N)=O)c1 | 0%
Nc1nc(Nc2ccccc2)cc(-c2ccc3c(N)n[nH]c3c2)n1 | 0%
O=C(Nc1n[nH]c2nc(-c3ccccc3)ccc12)C1CC1 | 0%
CCN(CC)CCOc1ccc(Nc2ncc3cc(-c4c(Cl)cccc4Cl)c(=O)n(C)c3n2)cc1 [PD-0166285] | 33.4%
CN(c1ccc2c(c1)nc(NCc1ccccc1)n2C)c1ccnc(Nc2ccc(CS(C)(=O)=O)cc2)n1 | 0%
c1ccc(-c2cnc3nccnn23)cc1 | 0%

SMILES | MOTILITY REDUCTION/CYTOTOXICITY
O=C1NC(=O)C(c2ccccc2)=C1Nc1cccc(O)c1 | 0%
Cc1occc1-c1nc(N)c(OC[C@@H](N)Cc2c[nH]c3ccccc23)cc1-c1cc2c(C)n[nH]c2cn1 | 0%
CS(=O)(=O)c1ccccc1-c1nc(-c2ccc(F)cc2)c(-c2ccncc2)[nH]1 | 33.4%
Cn1cncc1C(=O)NC1CCN(c2ccnc(Nc3ccc(F)cc3)n2)C1 (stereo not given) | 0%
O=C(Nc1n[nH]c2nc(-c3ccco3)c(Br)cc12)C1CCN(Cc2ccccc2)C1 (stereo not given) | 33.4%
COc1cccc(NC(=O)NC2CCN(c3ccnc(Nc4cc(OC)c(OC)c(OC)c4)n3)C2)c1 (stereo not given) | 86.7%
CS(=O)(=O)CCNCc1ccc(-c2ccc3ncnc(Nc4ccc(OCc5ccccc5)c(Cl)c4)c3c2)o1 | 20%
Nc1ncc(-c2cccnc2)c2scc(-c3ccc4c(c3)CCN4C(=O)Cc3ccccc3)c12 | 0%
Cc1c2ccc(N(C)c3ccnc(Nc4cccc(S(N)(=O)=O)c4)n3)cc2nn1Cc1ccccc1 | 0%
Cc1cccc(-c2nc(Nc3cccc(C(N)=O)c3)c3ccccc3n2)n1 | 46.7%
CCn1c(-c2ccccn2)nc2cnccc21 | 0%
Fc1ccc(-c2nc[nH]c2-c2ccncc2)cc1 | 0%
Cc1nn2c(=O)cc(N3CCO[C@H](C)C3)nc2n1Cc1cccc(Cl)c1Cl | 33.4%
Cc1ccn2nc(-c3ccc(F)cc3)c(-c3ccncc3)c2c1 | 0%
COc1cccc2c(-c3ccncc3)c(-c3ccc(F)cc3)nn12 | 66.7%
Nc1cccc(-c2ccc3c(N)n[nH]c3c2)c1 | 33.4%
Cn1cc(-c2ccc3c(c2)CCN3C(=O)Cc2cccc(C(F)(F)F)c2)c2c(N)ncnc21 | 0%
COC(=O)C(NC(=O)NC1CCN(c2ccnc(Nc3ccc(F)cc3)n2)C1)c1ccccc1 (stereo not given) | 0%
Cc1cc(N2Cc3ccccc3C2)nc(Nc2ccc(S(=O)(=O)N3CCOCC3)cc2)n1 | 0%
c1ccc(Oc2ccc(Nc3ccnc4cc(-c5ccc(CN6CCNCC6)o5)ccc34)cc2)nc1 | 0%
c1ccc(-c2cc(-c3c[nH]nc3-c3ccccn3)ccn2)cc1 | 0%
C[C@H]1CC[C@@H](C(=O)Nc2ccccc2)CN1c1cc(-c2ccc3c(N)n[nH]c3c2)nc(N)n1 | 0%
CCn1c(-c2ccccc2)nc2cnccc21 | 0%
CC(=O)c1cccc(NC(=O)NC2CCN(c3ccnc(Nc4ccc(F)cc4)n3)C2)c1 (stereo not given) | 0%
CC(=O)Nc1n[nH]c2ncc(-c3ccccc3)cc12 | 0%
COc1ccc(-c2oc3ncnc(N)c3c2-c2ccc(OC)cc2)cc1 | 20%
